Test results published in patent publication US20110092547A1 (priority 2007, published 2011).

Target: T1, human DGAT1 (Homo sapiens, UniProt O75907)
T1 construct: made in house; host or cells: Sf9 insect cells (recombinant baculovirus); membrane fraction
T1 sequence (O75907 1-488): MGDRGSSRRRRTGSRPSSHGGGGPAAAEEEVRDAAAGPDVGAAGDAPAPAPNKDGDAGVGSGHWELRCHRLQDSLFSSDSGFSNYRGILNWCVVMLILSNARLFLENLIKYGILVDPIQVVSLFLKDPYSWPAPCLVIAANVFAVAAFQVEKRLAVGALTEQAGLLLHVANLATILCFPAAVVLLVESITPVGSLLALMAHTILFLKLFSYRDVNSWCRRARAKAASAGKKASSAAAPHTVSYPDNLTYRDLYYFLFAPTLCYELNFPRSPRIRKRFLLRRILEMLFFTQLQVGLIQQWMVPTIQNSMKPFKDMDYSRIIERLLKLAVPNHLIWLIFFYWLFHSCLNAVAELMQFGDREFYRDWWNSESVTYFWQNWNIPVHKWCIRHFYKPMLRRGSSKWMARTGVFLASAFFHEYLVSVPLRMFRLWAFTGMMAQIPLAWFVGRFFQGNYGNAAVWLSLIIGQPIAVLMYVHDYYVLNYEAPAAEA
Assay: Human enzyme assay, further developed assay (14C oleoyl CoA, 96 well plate)
Assay type: biochemical
Conditions: human DGAT1 expressed in insect cell (sf9) membranes
Procedure: The in vitro assay to identify DGAT1 inhibitors uses human DGAT1 expressed in insect cell membranes as the enzyme source (Proc. Natl. Acad. Sci. 1998, 95, 13018-13023). Briefly, sf9 cells were infected with recombinant baculovirus containing human DGAT1 coding sequences and harvested after 48 h. Cells were lysed by sonication and membranes isolated by centrifuging at 28000 rpm for 1 h at 4° C. on a 41% sucrose gradient. The membrane fraction at the interphase was collected, washed, and stored in liquid nitrogen.
In a further developed assay, DGAT1 activity was assayed by a modification of the method described by Coleman (Methods in Enzymology 1992, 209, 98-102). Compound at 0.00003-10 μM (final cone) was incubated with 25 μg/ml (final cone) membrane protein, 5 mM MgCl2, and 100 μM 1,2 dioleoyl-sn-glycerol in a total assay volume of 200 μl in a 96 well plate. The reaction was started by adding ^14C oleoyl coenzyme A (30 μM final concentration) and incubated at room temperature for 30 minutes. The reaction was stopped by adding 300 μl 2-propanol:heptane 7:1. Radioactive triolein product was separated into the organic phase by adding 200 μl heptane and 200 μl 0.1 M carbonate buffer pH 9.5. DGAT1 activity was quantified by counting aliquots of the upper heptane layer by liquid scintillography.

SMILES	IC50 [µM]
O=C(Nc1ccc(O[C@H]2CC[C@H](C(=O)O)CC2)nc1)c1nnc(Nc2ccc(F)c(C(F)(F)F)c2)o1 [Example 29, (1r,4r)-4-(5-(5-(4-fluoro-3-(trifluoro-methyl)phenylamino)-1,3,4-oxadiazole-2-carboxamido)pyridin-2-yloxy)cyclo-hexane-carboxylic acid]	0.025
COc1cc(O[C@H]2CC[C@@H](C(=O)O)CC2)ncc1NC(=O)c1nnc(Nc2ccc(F)c(F)c2)o1 [Example 43, (1s,4s)-4-(5-(5-(3,4-Difluorophenylamino)-1,3,4-oxadiazole-2-carboxamido)-4-methoxypyridin-2-yloxy)cyclohexanecarboxylic acid]	0.05
COc1cc(Cl)ccc1Nc1nnc(C(=O)Nc2ccc(O[C@H]3CC[C@@H](C(=O)O)CC3)nc2)o1 [Example 71, (1s,4s)-4-(5-(5-(4-Chloro-2-methoxyphenylamino)-1,3,4-oxadiazole-2-carboxamido)pyridin-2-yloxy)cyclohexanecarboxylic acid]	0.034
O=C(Nc1ccc(O[C@H]2CC[C@H](C(=O)O)CC2)nc1)c1nnc(Nc2cc(C(F)(F)F)c(F)cc2F)o1 [Example 35]	0.087
O=C(Nc1ccc(O[C@H]2CC[C@H](C(=O)O)CC2)nc1)c1nnc(Nc2cccc(OC(F)(F)F)c2)o1 [Example 34, (1r,4r)-4-(5-(5-(3-(trifluoromethoxy)phenylamino)-1,3,4-oxadiazole-2-carboxamido)pyridin-2-yloxy)cyclohexanecarboxylic acid]	0.021
COc1nc(O[C@H]2CC[C@@H](C(=O)O)CC2)ccc1NC(=O)c1nnc(Nc2ccc(F)c(F)c2)o1 [Example 51, (1s,4s)-4-(5-(5-(3,4-Difluorophenylamino)-1,3,4-oxadiazole-2-carboxamido)-6-methoxypyridin-2-yloxy)cyclohexanecarboxylic acid]	0.029
O=C(Nc1cnc(O[C@H]2CC[C@@H](C(=O)O)CC2)cc1F)c1nnc(Nc2ccc(F)c(F)c2)o1 [Example 59, (1s,4s)-4-(5-(5-(3,4-Difluorophenylamino)-1,3,4-oxadiazole-2-carboxamido)-4-fluoropyridin-2-yloxy)cyclohexanecarboxylic acid]	0.0086
Cc1nc(O[C@H]2CC[C@@H](C(=O)O)CC2)ccc1NC(=O)c1nnc(Nc2ccc(F)c(F)c2)o1 [Example 62, (1s,4s)-4-(5-(5-(3,4-Difluorophenylamino)-1,3,4-oxadiazole-2-carboxamido)-6-methylpyridin-2-yloxy)cyclohexanecarboxylic acid]	0.058
O=C(Nc1ccc(O[C@H]2CC[C@@H](C(=O)O)CC2)nc1)c1nnc(Nc2cc(C(F)(F)F)c(F)cc2F)o1 [Example 5, (1s,4s)-4-(5-(5-(2,4-difluoro-5-(trifluoromethyl)phenylamino)-1,3,4-oxadiazole-2-carboxamido)pyridin-2-yloxy)cyclohexanecarboxylic acid]	0.031
COc1nc(O[C@H]2CC[C@@H](C(=O)O)CC2)ccc1NC(=O)c1nnc(Nc2ccc(F)c(Cl)c2)o1 [Example 52, (1s,4s)-4-(5-(5-(3-Chloro-4-fluorophenylamino)-1,3,4-oxadiazole-2-carboxamido)-6-methoxypyridin-2-yloxy)cyclohexanecarboxylic acid]	0.023
O=C(Nc1ccc(O[C@H]2CC[C@H](C(=O)O)CC2)nc1)c1nnc(Nc2cccc(Cl)c2Cl)o1 [Example 28, (1r,4r)-4-(5-(5-(2,3-dichloro-phenylamino)-1,3,4-oxadiazole-2-carboxamido)pyridin-2-yloxy)cyclo-hexane-carboxylic acid]	0.016
O=C(Nc1ccc(O[C@H]2CC[C@H](C(=O)O)CC2)nc1)c1nnc(Nc2ccc(OC(F)(F)F)cc2)o1 [Example 25, (1r,4r)-4-(5-(5-(4-(trifluoro-methoxy)phenylamino)-1,3,4-oxadiazole-2-carboxamido)pyridin-2-yloxy)cyclo-hexane-carboxylic acid]	0.052
O=C(Nc1cnc(O[C@H]2CC[C@@H](C(=O)O)CC2)c(Cl)c1)c1nnc(Nc2ccc(Cl)cc2Cl)o1 [Example 46, (1s,4s)-4-(3-Chloro-5-(5-(2,4-dichlorophenylamino)-1,3,4-oxadiazole-2-carboxamido)pyridin-2-yloxy)cyclohexanecarboxylic acid]	0.022
CC(C)(C)c1ccc(Nc2nnc(C(=O)Nc3ccc(O[C@H]4CC[C@@H](C(=O)O)CC4)nc3)o2)cc1 [Example 9, (1s,4s)-4-(5-(5-(4-tert-butylphenylamino)-1,3,4-oxadiazole-2-carboxamido)pyridin-2-yloxy)cyclohexanecarboxylic acid]	0.055
O=C(O)C[C@H]1CC[C@@H](Oc2ccc(NC(=O)c3nnc(Nc4ccc(F)c(F)c4)o3)cn2)CC1 [Example 36, 2-((1s,4s)-4-(5-(5-(3,4-difluorophenylamino)-1,3,4-oxadiazole-2-carboxamido)pyridin-2-yloxy)cyclohexyl)acetic acid]	0.0096
O=C(Nc1cnc(O[C@H]2CC[C@@H](C(=O)O)CC2)c(Cl)c1)c1nnc(Nc2ccc(F)c(Cl)c2)o1 [Example 48, (1s,4s)-4-(3-Chloro-5-(5-(3-chloro-4-fluorophenylamino)-1,3,4-oxadiazole-2-carboxamido)pyridin-2-yloxy)cyclohexanecarboxylic acid]	0.014
Cc1cc(OC2CCC(C(=O)O)CC2)ncc1NC(=O)c1nnc(Nc2ccc(Cl)c(F)c2)o1 (centres unmarked) [Example 42, (1s,4s)-4-(5-(5-(4 - Chloro-3-fluorophenylamino)-1,3,4-oxadiazole-2-carboxamido)-4-methylpyridin-2-yloxy) cyclohexanecarboxylic acid]	0.0011
CS(=O)(=O)NC(=O)[C@H]1CC[C@@H](Oc2ccc(NC(=O)c3nnc(Nc4ccc(F)c(F)c4)o3)cn2)CC1 [Example 45, 5-(3,4-Difluorophenylamino)-N-(6-((1s,4s)-4-(methylsulfonylcarbamoyl)cyclohexyloxy)pyridin-3-yl)-1,3,4-oxadiazole-2-carboxamide]	0.0064
O=C(Nc1ccc(O[C@H]2CC[C@@H](C(=O)O)CC2)nc1F)c1nnc(Nc2ccc(F)c(F)c2)o1 [Example 50, (1s,4s)-4-(5-(5-(3,4-Difluorophenylamino)-1,3,4-oxadiazole-2-carboxamido)-6-fluoropyridin-2-yloxy)cyclohexanecarboxylic acid]	0.0034
O=C(O)c1ccc(Oc2ccc(NC(=O)c3nnc(Nc4ccc(F)c(F)c4)o3)cn2)cc1 [Example 38, 4-(5-(5-(3,4-Difluorophenylamino)-1,3,4-oxadiazole-2-carboxamido)-Pyridin-2-yloxy)benzoic acid]	0.0054
O=C(Nc1ccc(O[C@H]2CC[C@H](C(=O)O)CC2)nc1)c1nnc(Nc2cccc(Cl)c2)o1 [Example 27, (1r,4r)-4-(5-(5-(3-chloro-phenylamino)-1,3,4-oxadiazole-2-carboxamido)pyridin-2-yloxy)cyclo-hexane-carboxylic acid]	0.019
CC1(C(=O)O)CCC(Oc2ccc(NC(=O)c3nnc(Nc4ccc(F)c(Cl)c4)o3)cn2)CC1 (mixture of isomers) [Example 69, 4-(5-(5-(3-Chloro-4-fluorophenylamino)-1,3,4-oxadiazole-2-carboxamido)pyridin-2-yloxy)-1-methylcyclohexanecarboxylic acid]	0.0043
CC(C)c1ccc(Nc2nnc(C(=O)Nc3ccc(O[C@H]4CC[C@@H](C(=O)O)CC4)nc3)o2)cc1 [Example 10, (1s,4s)-4-(5-(5-(4-isopropylphenylamino)-1,3,4-oxadiazole-2-carboxamido)pyridin-2-yloxy)cyclohexanecarboxylic acid]	0.019
O=C(O)C[C@H]1CC[C@@H](Oc2ccc(NC(=O)c3nnc(Nc4ccc(F)c(Cl)c4)o3)cn2)CC1 [Example 53, 2-((1s,4s)-4-(5-(5-(3-Chloro-4-fluorophenylamino)-1,3,4-oxadiazole-2-carboxamido)pyridin-2-yloxy)cyclohexyl)acetic acid]	0.0031
CC1(C(=O)O)CCC(Oc2ccc(NC(=O)c3nnc(Nc4ccc(Cl)cc4Cl)o3)cn2)CC1 (centres unmarked) [Example 67, 4-(5-((5-((2,4-dichlorophenyl)amino)-1,3,4-oxadiazole-2-carbonyl)amino)pyridin-2-yl)oxy-1-methylcyclohexane-1-carboxylic acid]	0.0072
O=C(Nc1ccc(O[C@H]2CC[C@H](C(=O)O)CC2)nc1)c1nnc(Nc2cc(F)c(F)cc2F)o1 [Example 22, (1r,4r)-4-(5-(5-(2,4,5-trifluorophenylamino)-1,3,4-oxadiazole-2-carboxamido)pyridin-2-yloxy)cyclohexanecarboxylic acid]	0.036
